Experimental data: ChEMBL document CHEMBL2331098, “Unprecedented polyketides from a marine sponge-associated Stachylidium sp” (J Nat Prod, 2013)
The source made the active and inactive calls.

Legend:
[1] = target: Sigma non-opioid intracellular receptor 1 (Homo sapiens) (UniProt Q99720); experiment: Displacement of [3H]pentazocine from sigma1 receptor (unknown origin) at 10 uM
[2] = target: Muscarinic acetylcholine receptor M3 (Homo sapiens) (UniProt P20309); experiment: Displacement of [3H]QNB from M3 receptor (unknown origin) at 10 uM
[3] = target: Histamine H4 receptor (Homo sapiens) (UniProt Q9H3N8); experiment: Displacement of [3H]histamine from H4 receptor (unknown origin) at 10 uM
[4] = target: Alpha-2B adrenergic receptor (Homo sapiens) (UniProt P18089); experiment: Displacement of [3H]clonidine from alpha2B receptor (unknown origin) at 10 uM
[5] = target: Alpha-2C adrenergic receptor (Homo sapiens) (UniProt P18825); experiment: Displacement of [3H]clonidine from alpha2C receptor (unknown origin) at 10 uM
[6] = target: Beta-2 adrenergic receptor (Homo sapiens) (UniProt P07550); experiment: Displacement of [125I]iodopindolol from beta2 receptor (unknown origin) at 10 uM
[7] = target: Beta-1 adrenergic receptor (Homo sapiens) (UniProt P08588); experiment: Displacement of [125I]iodopindolol from beta1 receptor (unknown origin) at 10 uM
[8] = target: Alpha-1D adrenergic receptor (Homo sapiens) (UniProt P25100); experiment: Displacement of radiolabeled ligand from alpha1D receptor (unknown origin) at 10 uM
[9] = target: 5-hydroxytryptamine receptor 5A (Homo sapiens) (UniProt P47898); experiment: Displacement of [3H]LSD from 5-HT5A receptor (unknown origin) at 10 uM
[10] = target: Alpha-1B adrenergic receptor (Homo sapiens) (UniProt P35368); experiment: Displacement of [3H]prazosin from alpha1B receptor (unknown origin) at 10 uM
[11] = target: D(2) dopamine receptor (Homo sapiens) (UniProt P14416); experiment: Displacement of [3H]N-methylspiperone from D2 receptor (unknown origin) at 10 uM
[12] = target: D(4) dopamine receptor (Homo sapiens) (UniProt P21917); experiment: Displacement of [3H]N-methylspiperone from D4 receptor (unknown origin) at 10 uM
[13] = test system: Priestia megaterium; experiment: Antimicrobial activity against Bacillus megaterium; assay type: functional, organism-based
[14] = target: 5-hydroxytryptamine receptor 2B (Homo sapiens) (UniProt P41595); experiment: Displacement of [3H]LSD from 5-HT2B receptor (unknown origin) at 10 uM
[15] = target: Histamine H2 receptor (Homo sapiens) (UniProt P25021); experiment: Displacement of [3H]tiotidine from H2 receptor (unknown origin) at 10 uM
[16] = target: Alpha-1A adrenergic receptor (Homo sapiens) (UniProt P35348); experiment: Displacement of [3H]prazosin from alpha1A receptor (unknown origin) at 10 uM
[17] = species on record: Rattus norvegicus; experiment: Displacement of [3H]flunitrazepam from rat brain BZP receptor (unknown origin) at 10 uM
[18] = species on record: Homo sapiens; experiment: Displacement of [3H]DTG from sigma2 receptor (unknown origin) at 10 uM
[19] = target: D(3) dopamine receptor (Homo sapiens) (UniProt P35462); experiment: Displacement of [3H]N-methylspiperone from D3 receptor (unknown origin) at 10 uM
[20] = target: 5-hydroxytryptamine receptor 7 (Homo sapiens) (UniProt P34969); experiment: Displacement of [3H]LSD from 5-HT7 receptor (unknown origin) at 10 uM
[21] = target: 5-hydroxytryptamine receptor 3A (Homo sapiens) (UniProt P46098); experiment: Displacement of [3H]LY278584 from 5-HT3 receptor (unknown origin) at 10 uM
[22] = target: 5-hydroxytryptamine receptor 2C (Homo sapiens) (UniProt P28335); experiment: Displacement of [3H]mesulergine from 5-HT2C receptor (unknown origin) at 10 uM
[23] = target: Muscarinic acetylcholine receptor M5 (Homo sapiens) (UniProt P08912); experiment: Displacement of [3H]QNB from M5 receptor (unknown origin) at 10 uM
[24] = test system: Mycotypha microspora; experiment: Antimicrobial activity against Mycotypha microspora; assay type: functional, organism-based
[25] = test system: Aspergillus ruber; experiment: Antimicrobial activity against Eurotium rubrum; assay type: functional, organism-based
[26] = target: Histamine H3 receptor (Homo sapiens) (UniProt Q9Y5N1); experiment: Displacement of [3H]alpha-methylhistamine from H3 receptor (unknown origin) at 10 uM
[27] = target: Muscarinic acetylcholine receptor M4 (Homo sapiens) (UniProt P08173); experiment: Displacement of [3H]QNB from M4 receptor (unknown origin) at 10 uM
[28] = target: Sodium-dependent noradrenaline transporter (Homo sapiens) (UniProt P23975); experiment: Displacement of [3H]nisoxetine from NET (unknown origin) at 10 uM
[29] = target: Mu-type opioid receptor (Homo sapiens) (UniProt P35372); experiment: Displacement of [3H]DAMGO from mu opioid receptor (unknown origin) at 10 uM
[30] = target: Alpha-2A adrenergic receptor (Homo sapiens) (UniProt P08913); experiment: Displacement of [3H]clonidine from alpha2A receptor (unknown origin) at 10 uM
[31] = target: 5-hydroxytryptamine receptor 1B (Homo sapiens) (UniProt P28222); experiment: Displacement of [3H][…] from 5-HT1B receptor (unknown origin) at 10 uM
[32] = target: Sodium-dependent dopamine transporter (Homo sapiens) (UniProt Q01959); experiment: Displacement of [3H]WIN35428 from DAT (unknown origin) at 10 uM
[33] = target: Delta-type opioid receptor (Homo sapiens) (UniProt P41143); experiment: Displacement of [3H]DADLE from delta opioid receptor (unknown origin) at 10 uM
[34] = target: Sodium-dependent serotonin transporter (Homo sapiens) (UniProt P31645); experiment: Displacement of [3H]citalopram from SERT (unknown origin) at 10 uM
[35] = test system: Microbotryum violaceum; experiment: Antimicrobial activity against Microbotryum violaceum; assay type: functional, organism-based
[36] = target: Beta-3 adrenergic receptor (Homo sapiens) (UniProt P13945); experiment: Displacement of [125I]iodopindolol from beta3 receptor (unknown origin) at 10 uM
[37] = target: Histamine H1 receptor (Homo sapiens) (UniProt P35367); experiment: Displacement of [3H]pyrilamine from H1 receptor (unknown origin) at 10 uM
[38] = target: GABA-A receptor; agonist GABA site (Homo sapiens) (UniProt P14867+P47870+P28472+P48169+P34903+P18505+P47869+P31644+Q16445); experiment: Displacement of [3H]muscimol from GABAA receptor (unknown origin) at 10 uM; assay type: protein-complex assay
[39] = target: Kappa-type opioid receptor (Homo sapiens) (UniProt P41145); experiment: Displacement of [3H]U69593 from kappa opioid receptor (unknown origin) at 10 uM
[40] = test system: [Chlorella] fusca; experiment: Antimicrobial activity against Chlorella fusca; assay type: functional, organism-based; details: Scenedesmus fuscus
[41] = target: Muscarinic acetylcholine receptor M2 (Homo sapiens) (UniProt P08172); experiment: Displacement of [3H]QNB from M2 receptor (unknown origin) at 10 uM
[42] = target: 5-hydroxytryptamine receptor 1A (Homo sapiens) (UniProt P08908); experiment: Displacement of [3H]8-OH-DPAT from 5-HT1A receptor (unknown origin) at 10 uM
[43] = target: 5-hydroxytryptamine receptor 1E (Homo sapiens) (UniProt P28566); experiment: Displacement of [3H]5-HT from 5-HT1E receptor (unknown origin) at 10 uM
[44] = test system: Escherichia coli; experiment: Antimicrobial activity against Escherichia coli; assay type: functional, organism-based
[45] = target: D(1A) dopamine receptor (Homo sapiens) (UniProt P21728); experiment: Displacement of [3H][…] from D1 receptor (unknown origin) at 10 uM
[46] = target: 5-hydroxytryptamine receptor 2A (Homo sapiens) (UniProt P28223); experiment: Displacement of [3H]ketanserin from 5-HT2A receptor (unknown origin) at 10 uM
[47] = target: Muscarinic acetylcholine receptor M1 (Homo sapiens) (UniProt P11229); experiment: Displacement of [3H]QNB from M1 receptor (unknown origin) at 10 uM
[48] = target: 5-hydroxytryptamine receptor 1D (Homo sapiens) (UniProt P28221); experiment: Displacement of [3H][…] from 5-HT1D receptor (unknown origin) at 10 uM
[49] = target: D(1B) dopamine receptor (Homo sapiens) (UniProt P21918); experiment: Displacement of [3H][…] from D5 receptor (unknown origin) at 10 uM
[50] = target: 5-hydroxytryptamine receptor 6 (Homo sapiens) (UniProt P50406); experiment: Displacement of [3H]LSD from 5-HT6 receptor (unknown origin) at 10 uM
[51] = test system: NCI-H460; experiment: Cytotoxicity against human NCI-H460 cells at 100 uM; assay type: functional, cell-based
[52] = species on record: Homo sapiens; experiment: Inhibition of NF-kappaB protein complex (unknown origin) at 100 uM
[53] = target: Tyrosine-protein phosphatase non-receptor type 1 (Homo sapiens) (UniProt P18031); experiment: Inhibition of PTP1B (unknown origin)
[54] = test system: MCF7; experiment: Cytotoxicity against human MCF7 cells at 100 uM; assay type: functional, cell-based
[55] = target: T1, Peroxisome proliferator-activated receptor (Homo sapiens) (UniProt P37231+Q07869+Q03181); experiment: Activity at PPAR (unknown origin) by PPAR ligand assay; assay type: protein assay
[56] = test system: 3T3-L1; experiment: Induction of glucose uptake in mouse 3T3L1 cells at 100 uM; assay type: functional, cell-based
[57] = test system: Adipocyte; experiment: Induction of glucose uptake in mouse primary adipocyte cells at 100 uM; assay type: functional, cell-based
[58] = test system: SF-268; experiment: Cytotoxicity against human SF268 cells at 100 uM; assay type: functional, cell-based
[59] = test system: Adipocyte; experiment: Induction of glucose uptake in rat primary adipocyte cells at 100 uM; assay type: functional, cell-based
[60] = target: T1, Peroxisome proliferator-activated receptor (Homo sapiens); experiment: Activity at PPAR (unknown origin) by PPAR co-activator assay; assay type: protein assay

Sequence of Tyrosine-protein phosphatase non-receptor type 1 (Homo sapiens) (P18031 whole entry): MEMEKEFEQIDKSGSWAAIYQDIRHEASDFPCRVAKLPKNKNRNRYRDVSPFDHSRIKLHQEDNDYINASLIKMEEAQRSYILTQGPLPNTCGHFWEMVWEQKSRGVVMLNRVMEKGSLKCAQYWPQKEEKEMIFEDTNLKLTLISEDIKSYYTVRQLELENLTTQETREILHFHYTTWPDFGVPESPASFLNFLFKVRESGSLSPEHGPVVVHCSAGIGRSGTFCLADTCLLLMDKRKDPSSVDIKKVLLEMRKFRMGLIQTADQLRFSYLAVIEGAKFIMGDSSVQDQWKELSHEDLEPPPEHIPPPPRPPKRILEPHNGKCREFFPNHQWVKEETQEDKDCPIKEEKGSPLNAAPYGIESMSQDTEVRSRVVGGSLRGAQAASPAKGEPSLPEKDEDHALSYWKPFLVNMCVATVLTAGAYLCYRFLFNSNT
Sequence of D(2) dopamine receptor (Homo sapiens) (P14416 whole entry): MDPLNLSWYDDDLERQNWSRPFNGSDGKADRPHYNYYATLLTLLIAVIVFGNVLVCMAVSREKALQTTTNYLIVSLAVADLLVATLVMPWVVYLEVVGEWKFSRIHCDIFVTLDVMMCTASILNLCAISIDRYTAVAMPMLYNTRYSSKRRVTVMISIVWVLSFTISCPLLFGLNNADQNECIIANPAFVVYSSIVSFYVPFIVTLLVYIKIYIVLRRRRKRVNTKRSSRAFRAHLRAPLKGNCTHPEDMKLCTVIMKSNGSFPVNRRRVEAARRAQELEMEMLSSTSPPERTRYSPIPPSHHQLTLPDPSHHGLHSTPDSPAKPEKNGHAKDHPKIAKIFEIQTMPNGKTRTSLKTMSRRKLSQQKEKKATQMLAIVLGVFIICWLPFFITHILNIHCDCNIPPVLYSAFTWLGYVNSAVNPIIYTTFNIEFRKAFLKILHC
Sequence of Histamine H2 receptor (Homo sapiens) (P25021 whole entry): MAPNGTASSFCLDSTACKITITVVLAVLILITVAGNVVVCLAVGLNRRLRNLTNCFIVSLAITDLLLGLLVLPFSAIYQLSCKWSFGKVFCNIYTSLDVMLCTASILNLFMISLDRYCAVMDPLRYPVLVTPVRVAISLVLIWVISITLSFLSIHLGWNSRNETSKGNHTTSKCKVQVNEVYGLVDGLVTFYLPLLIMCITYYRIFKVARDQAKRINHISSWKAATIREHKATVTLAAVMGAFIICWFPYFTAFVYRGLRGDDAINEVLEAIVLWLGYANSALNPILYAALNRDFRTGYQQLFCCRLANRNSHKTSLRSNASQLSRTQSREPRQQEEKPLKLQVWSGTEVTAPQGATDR
Sequence of Mu-type opioid receptor (Homo sapiens) (P35372 whole entry): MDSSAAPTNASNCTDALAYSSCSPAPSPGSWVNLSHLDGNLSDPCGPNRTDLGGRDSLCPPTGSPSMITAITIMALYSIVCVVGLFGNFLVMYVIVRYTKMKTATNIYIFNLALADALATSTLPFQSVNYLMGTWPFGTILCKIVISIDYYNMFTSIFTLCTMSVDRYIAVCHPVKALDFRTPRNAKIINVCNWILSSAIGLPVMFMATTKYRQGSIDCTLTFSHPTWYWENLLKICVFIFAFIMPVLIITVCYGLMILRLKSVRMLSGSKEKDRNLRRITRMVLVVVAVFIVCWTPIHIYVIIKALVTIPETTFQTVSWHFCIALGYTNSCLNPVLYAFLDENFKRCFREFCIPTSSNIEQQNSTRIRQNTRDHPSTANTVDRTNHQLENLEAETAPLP
Sequence of D(4) dopamine receptor (Homo sapiens) (P21917 whole entry): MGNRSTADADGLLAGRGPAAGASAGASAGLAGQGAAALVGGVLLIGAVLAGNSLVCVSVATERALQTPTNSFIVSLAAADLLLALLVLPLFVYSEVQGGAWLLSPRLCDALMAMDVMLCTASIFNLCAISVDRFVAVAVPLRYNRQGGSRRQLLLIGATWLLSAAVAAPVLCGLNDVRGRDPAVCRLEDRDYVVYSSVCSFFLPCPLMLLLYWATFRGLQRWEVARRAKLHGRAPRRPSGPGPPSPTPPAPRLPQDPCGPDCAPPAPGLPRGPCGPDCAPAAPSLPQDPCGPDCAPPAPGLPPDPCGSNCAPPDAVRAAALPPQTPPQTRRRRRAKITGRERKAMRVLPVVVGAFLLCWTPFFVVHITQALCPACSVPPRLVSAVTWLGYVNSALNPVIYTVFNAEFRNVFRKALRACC
Sequence of 5-hydroxytryptamine receptor 1B (Homo sapiens) (P28222 whole entry): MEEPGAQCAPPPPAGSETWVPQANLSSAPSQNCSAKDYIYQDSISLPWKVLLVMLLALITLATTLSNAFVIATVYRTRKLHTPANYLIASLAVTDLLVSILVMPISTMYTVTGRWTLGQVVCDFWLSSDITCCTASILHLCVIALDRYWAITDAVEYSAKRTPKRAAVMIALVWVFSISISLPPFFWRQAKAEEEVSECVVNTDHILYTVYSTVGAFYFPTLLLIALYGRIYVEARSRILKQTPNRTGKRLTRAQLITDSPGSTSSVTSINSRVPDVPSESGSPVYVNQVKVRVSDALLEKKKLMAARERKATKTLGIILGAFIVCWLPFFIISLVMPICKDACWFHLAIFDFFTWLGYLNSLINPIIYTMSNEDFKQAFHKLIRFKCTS
Sequence of Muscarinic acetylcholine receptor M5 (Homo sapiens) (P08912 whole entry): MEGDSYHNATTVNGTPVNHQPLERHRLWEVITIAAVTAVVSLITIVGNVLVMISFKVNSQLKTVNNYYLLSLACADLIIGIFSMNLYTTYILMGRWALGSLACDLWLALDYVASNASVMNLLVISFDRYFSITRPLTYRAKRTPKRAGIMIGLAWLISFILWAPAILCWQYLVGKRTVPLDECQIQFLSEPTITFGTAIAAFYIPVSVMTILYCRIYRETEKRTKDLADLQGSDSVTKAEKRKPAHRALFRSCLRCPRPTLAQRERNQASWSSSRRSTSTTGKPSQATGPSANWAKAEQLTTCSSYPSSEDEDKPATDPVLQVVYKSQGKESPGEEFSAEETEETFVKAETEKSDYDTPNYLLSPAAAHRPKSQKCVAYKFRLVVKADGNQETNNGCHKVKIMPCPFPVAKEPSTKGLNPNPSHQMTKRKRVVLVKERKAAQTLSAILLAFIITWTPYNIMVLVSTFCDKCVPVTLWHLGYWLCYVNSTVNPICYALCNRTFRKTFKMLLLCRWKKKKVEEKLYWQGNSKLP
Sequence of Beta-1 adrenergic receptor (Homo sapiens) (P08588 whole entry, looked up): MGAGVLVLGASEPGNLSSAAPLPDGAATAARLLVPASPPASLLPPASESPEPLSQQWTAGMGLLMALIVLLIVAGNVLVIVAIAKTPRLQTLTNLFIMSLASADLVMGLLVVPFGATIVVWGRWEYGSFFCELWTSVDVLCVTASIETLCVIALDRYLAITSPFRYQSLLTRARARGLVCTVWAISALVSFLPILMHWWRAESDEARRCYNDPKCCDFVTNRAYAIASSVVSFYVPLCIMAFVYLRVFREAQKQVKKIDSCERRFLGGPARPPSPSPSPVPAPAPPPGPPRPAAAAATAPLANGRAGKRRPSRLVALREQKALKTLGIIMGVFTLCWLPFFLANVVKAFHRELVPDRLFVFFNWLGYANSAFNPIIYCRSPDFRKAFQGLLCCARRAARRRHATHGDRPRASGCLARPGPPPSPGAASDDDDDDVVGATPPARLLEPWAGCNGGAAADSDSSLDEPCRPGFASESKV
Sequence of 5-hydroxytryptamine receptor 5A (Homo sapiens) (P47898 whole entry): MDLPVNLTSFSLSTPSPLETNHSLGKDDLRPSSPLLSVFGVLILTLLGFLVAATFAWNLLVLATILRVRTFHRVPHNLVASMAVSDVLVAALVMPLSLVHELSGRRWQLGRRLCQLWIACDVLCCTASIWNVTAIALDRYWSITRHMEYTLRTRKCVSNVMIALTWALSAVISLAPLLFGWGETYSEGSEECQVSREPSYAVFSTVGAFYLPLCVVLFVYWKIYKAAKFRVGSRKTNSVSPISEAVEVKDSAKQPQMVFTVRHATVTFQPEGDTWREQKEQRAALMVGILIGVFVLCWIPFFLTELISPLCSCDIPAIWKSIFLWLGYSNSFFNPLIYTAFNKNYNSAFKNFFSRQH
Sequence of 5-hydroxytryptamine receptor 6 (Homo sapiens) (P50406 whole entry): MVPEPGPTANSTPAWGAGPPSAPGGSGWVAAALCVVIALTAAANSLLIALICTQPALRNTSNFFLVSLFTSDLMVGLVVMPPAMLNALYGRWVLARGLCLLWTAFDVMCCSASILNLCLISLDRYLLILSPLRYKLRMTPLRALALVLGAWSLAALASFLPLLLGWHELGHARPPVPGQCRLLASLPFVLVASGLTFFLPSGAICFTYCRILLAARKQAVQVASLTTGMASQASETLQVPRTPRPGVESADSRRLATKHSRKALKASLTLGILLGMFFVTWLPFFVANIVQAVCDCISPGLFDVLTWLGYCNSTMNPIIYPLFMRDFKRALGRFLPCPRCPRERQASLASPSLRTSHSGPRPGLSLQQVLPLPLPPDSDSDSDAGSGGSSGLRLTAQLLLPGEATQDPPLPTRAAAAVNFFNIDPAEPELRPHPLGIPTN
Sequence of Kappa-type opioid receptor (Homo sapiens) (P41145 whole entry): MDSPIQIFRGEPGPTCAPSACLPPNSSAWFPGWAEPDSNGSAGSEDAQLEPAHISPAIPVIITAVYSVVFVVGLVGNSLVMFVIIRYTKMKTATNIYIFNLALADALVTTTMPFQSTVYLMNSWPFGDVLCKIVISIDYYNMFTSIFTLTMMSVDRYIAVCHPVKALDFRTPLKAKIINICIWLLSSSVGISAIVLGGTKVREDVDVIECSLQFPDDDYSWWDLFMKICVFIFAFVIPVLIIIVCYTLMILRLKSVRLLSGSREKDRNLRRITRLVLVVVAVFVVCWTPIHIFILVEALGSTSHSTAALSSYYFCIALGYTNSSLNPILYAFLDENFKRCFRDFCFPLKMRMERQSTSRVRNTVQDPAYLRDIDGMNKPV
Sequence of Sigma non-opioid intracellular receptor 1 (Homo sapiens) (Q99720 whole entry): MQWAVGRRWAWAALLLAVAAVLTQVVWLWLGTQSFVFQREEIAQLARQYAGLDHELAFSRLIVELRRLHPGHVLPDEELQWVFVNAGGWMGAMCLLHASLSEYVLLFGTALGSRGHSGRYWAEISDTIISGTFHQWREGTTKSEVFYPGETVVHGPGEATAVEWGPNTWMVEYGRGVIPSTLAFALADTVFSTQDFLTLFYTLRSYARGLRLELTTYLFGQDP

COCc1c(C(C)O)cc(O)c(C)c1OC (configuration not stated)
inactive: inhibition [1] | inhibition [2] | inhibition [3] | inhibition [4] | inhibition [5] | inhibition [6] | inhibition [7] | inhibition [8] | inhibition [9] | inhibition [10] | inhibition [11] | inhibition [12] | Activity [13] | inhibition [14] | inhibition [15] | inhibition [16] | inhibition [17] | inhibition [18] | inhibition [19] | inhibition [20] | inhibition [21] | inhibition [22] | inhibition [23] | Activity [24] | Activity [25] | inhibition [26] | inhibition [27] | inhibition [28] | inhibition [29] | inhibition [30] | inhibition [31] | inhibition [32] | inhibition [33] | inhibition [34] | Activity [35] | inhibition [36] | inhibition [37] | inhibition [38] | inhibition [39] | Activity [40] | inhibition [41] | inhibition [42] | inhibition [43] | Activity [44] | inhibition [45] | inhibition [46] | inhibition [47] | inhibition [48] | inhibition [49] | inhibition [50]

COc1c(C)c(O)cc2c1C(O)CC2=O (configuration not stated)
inactive: Activity [51] | Activity [52] | Activity [13] | inhibition [53] | Activity [54] | Activity [55] | inhibition [56] | Activity [24] | Activity [25] | inhibition [57] | Activity [58] | Activity [35] | Activity [40] | Activity [44] | inhibition [59] | Activity [60]

COc1c(C)c(OC/C=C(\C)CCC=C(C)C)cc2c1[C@H](OC)O[C@]2(C)OC
inactive: Activity [52] | Activity [13] | Activity [24] | Activity [25] | Activity [35] | Activity [40] | Activity [44]

CCc1cc(O)c(C)c(OC)c1CC(C)C(=O)CC(O)CC (configuration not stated)
inactive: Activity [13] | Activity [24] | Activity [25] | Activity [35] | Activity [40] | Activity [44]

COCc1c(CO)cc(O)c(C)c1OC
inactive: Activity [13] | Activity [24] | Activity [25] | Activity [35] | Activity [40] | Activity [44]

CCc1cc(O)c(C)c(=O)o1
inactive: Activity [13] | inhibition [53] | Activity [55] | inhibition [56] | Activity [24] | Activity [25] | inhibition [57] | Activity [35] | Activity [40] | Activity [44] | inhibition [59] | Activity [60]

COc1c(C)c(OC/C=C(\C)CCC=C(C)C)cc2c1[C@H](OC)O[C@@]2(C)OC
inactive: Activity [51] | Activity [52] | Activity [13] | Activity [54] | Activity [24] | Activity [25] | Activity [58] | Activity [35] | Activity [40] | Activity [44]
